Assay results as given in patent publication US20150056702A1, “METHOD AND KIT FOR CULTURING STEM CELLS” (China Medical University, priority 2013, published 2015).

What was measured:
Assay type in all cases: cell-based, mouse
[1] = system: SSEA1; assay: Immunofluorescence staining, SSEA1 in ES cells; conditions: for SSEA1 expression level: ES cells, 72 hours, control group = 100%
Description: (§1) Nanog and SSEA1 are also marker proteins of stem cells, and their expression levels could be measured by immunofluorescence staining to further confirm whether BP can effectively maintain the self-renewal and pluripotency of stem cells.
(§2) An experimental group medium (BP5, BP10, BP20 or BP40), a LIF-containing medium (without BP), and a control group medium (without BP) were used respectively in a 6-well culture dish which comprises a slide in each well to culture ES cells with an initial density of 1×10^4 per well for 72 hours. The medium was removed and the cells were washed with PBS. Next, PBS was removed, and then 4% paraformaldehyde was added to perform the fixation at room temperature for 10 minutes. Next, paraformaldehyde was removed, and then slides were washed with 0.1% Tween-20/1X PBS three times for 10 minutes each time. The 0.3% Tween-20/1X PBS was added and held at room temperature for 30 minutes to penetrate the cell membrane to benefit the dye entry. After the slides were washed three times with 0.1% Tween-20, 5% FBS/1×PBS was added to perform a blocking reaction at room temperature for 2 hours, and then reacting with the primary antibody [anti-Nanog (Novus) or anti-SSEA1 (Millipore)] at a dilution of 1:100 at room temperature overnight. Slides were then washed 5 times with 0.1% Tween-20, then reacting with the secondary antibody [FITC-conjugated anti-mouse IgG or TRITC-conjugated anti-rabbit IgG (Sigma-Aldrich)] at a dilution of 1:500. After washed with 0.1% Tween-20 for 10 minutes, slides were mounted with the DAPI-containing UltraCruz™ Mounting medium and observed using an inverted fluorescent microscope.

[2] = system: Nanog; assay: Immunofluorescence staining, Nanog in iPS cells; conditions: 72 hours, control group = 100%
Description: as §1, §2
By using the above culture conditions, an experimental group medium (BP5, BP10, BP20 or BP40), a LIF-containing medium (without BP), and a control group medium (without BP) were used respectively to culture iPS cells. The staining of iPS cells was performed by using the steps described above.

[3] = system: Jak2; assay: Real-time PCR, Jak2 mRNA in ES cells; conditions: for Jak2 Gene expression level: ES cells, control group = 100%
Experimental: (§3) An experimental group medium (BP5, BP10, BP20 or BP40) and a control group medium (without BP) were added respectively to perform the following steps. ES cells were cultured with an initial density of 1×10^4 per well in a 6-well culture dish. The medium was removed until the cells growth to be about 70 to 80% confluence, and then 1 ml TRIzol (Invitrogen) was added into each well. The cells were incubated for 5 minutes, and then was scraped by a spatula and placed into a 1.5 ml microtube to be lysed adequately. Chloroform (0.2 ml) was added into the microtubes. The mixture was shaken up and down for 15 seconds, and then incubated at room temperature for 2 to 3 minutes. Thereafter, the mixture was centrifuged at 12000 rpm at 4° C. for 15 minutes, and the supernatant was removed into another 1.5 ml microtube and isopropanol (0.5 ml) was added into the microtube with well mixing. The mixture was incubated at room temperature for 10 minutes and then centrifuged at 12000 rpm at 4° C. for 10 minutes. The supernatant was then removed. One ml of 70% ethanol containing DEPC.H2O was used to wash the remaining sediment. The sediment was centrifuged at 7500 rpm at 4° C. for 5 minutes. The supernatant was removed. The sediment was dried by vacuum suction. The dried samples were dissolved in about 0.01 to 0.02 ml of DEPC.H2O to obtain the experimental group RNA and control group RNA. Both groups were stored at −80° C.
(§4) The OD value of RNA samples in both groups obtained from the above Experiment I were measured at a wavelength of 260 nm (RNA: OD260=1 for a 40 μg/mL solution). Each RNA sample (2 μl) was added with RNA-free water until the volume of the sample reached 10 μl. Two μl oligo (dT) (100 μg/ml) was added into each sample, and the samples were incubated at 65° C. for 5 minutes. Then, the samples were immediately placed on ice and spun down. Next, 6.5 μl of a reaction solution [4 μl of 5× buffer+1 μl of 0.1 M DTT+1 μl of RNase out+0.5 μl of SSIII (Invitrogen)] was added into each of the samples, and the samples were incubated at 50° C. for about 30 to 60 minutes and at 75° C. for 15 minutes to obtain the experimental group cDNA and control group cDNA. Both groups were stored at −80° C.
(§5) This experiment was used to detect the expression levels of ES cell-related genes, i.e., Oct4 and Sox2, etc. First, 4 μl of the experimental group cDNA or control group cDNA was added into each well of a 96-well micro-reaction plate, and mixed with 6 μl of a reaction solution [0.5 μl of 6 μM forward primer+0.5 μl of 6 μM reverse primer+5 μl of SYBR Green PCR Master mix (Roche)], wherein the SYBR Green PCR Master mix included the reagents needed for Q-PCR, such as dNTPs, MgCl, Taq DNA polymerase and 2×SYBR® Green I solution. […] The cycle threshold (CT) values were measured. […]

[4] = system: Stat3; assay: Real-time PCR, Stat3 mRNA in ES cells; conditions: for Stat3 Gene expression level: ES cells, control group = 100%
Experimental: as §3, §4, §5

[5] = system: LIF; assay: Real-time PCR, cytokine gene LIF in ES cells; conditions: for LIF mRNA expression level: ES cells, control group = 100%
Experimental: as §3, §4, §5

[6] = system: EPO; assay: Real-time PCR, cytokine gene EPO in ES cells; conditions: for EPO mRNA expression level: ES cells, control group = 100%
Experimental: as §3, §4, §5

[7] = system: IL5; assay: Real-time PCR, cytokine gene IL5 in ES cells; conditions: for IL5 mRNA expression level: ES cells, control group = 100%
Experimental: as §3, §4, §5

[8] = BP10 medium (about 10 μg BP/ml)
[9] = BP20 medium (about 20 μg BP/ml)
[10] = BP40 medium (about 40 μg BP/ml)
[11] = BP-containing ES cell medium (BP5 or BP10), result in words
[12] = BP-containing ES cell medium, result in words
[13] = LIF-containing medium (LIF 4 ng/ml, without BP)
[14] = LIF-containing medium (LIF 4 ng/ml)

Compound: CCCC=C1OC(=O)c2ccccc21 [BP, n-butylidenephthalide]
- SSEA1 expression level ([1]; BP5 medium (about 5 μg BP/ml)): 76.27%
- SSEA1 expression level [1, 8]: 202.82%
- SSEA1 expression level [1, 9]: 172.12%
- SSEA1 expression level [1, 10]: 145.71%
- expression level of SSEA1 ([1]; BP-containing ES cell medium vs control group (without BP), result in words): higher
- Nanog expression level ([2]; BP5 medium (about 5 μg BP/ml)): 142%
- Nanog expression level [2, 8]: 305%
- Nanog expression level [2, 9]: 358%
- Nanog expression level [2, 10]: 442%
- Jak2 Gene expression level ([3]; BP5 medium (about 5 μg BP/ml)): 180%
- Jak2 Gene expression level [3, 8]: 211%
- mRNA expression level of Jak2 [3, 11]: significantly up-regulated
- Stat3 Gene expression level ([4]; BP5 medium (about 5 μg BP/ml)): 169%
- Stat3 Gene expression level [4, 8]: 151%
- mRNA expression level of Stat3 [4, 11]: significantly up-regulated
- LIF mRNA expression level ([5]; BP5 medium (about 5 μg BP/ml)): 113%
- LIF mRNA expression level [5, 8]: 184%
- mRNA expression level of LIF [5, 12]: significantly up-regulated
- EPO mRNA expression level ([6]; BP5 medium (about 5 μg BP/ml)): 97%
- EPO mRNA expression level [6, 8]: 196%
- mRNA expression level of EPO [6, 12]: significantly up-regulated
- IL5 mRNA expression level ([7]; BP5 medium (about 5 μg BP/ml)): 65%
- IL5 mRNA expression level [7, 8]: 175%
- mRNA expression level of IL-5 [7, 12]: significantly up-regulated

Compound: LIF: multifunctional cell factor used to maintain pluripotency of stem cells; LIF-containing medium (4 ng/ml, without BP) as comparison
- SSEA1 expression level [1, 13]: 242.01%
- Nanog expression level [2, 13]: 386%
- Jak2 Gene expression level [3, 13]: 159%
- Stat3 Gene expression level [4, 13]: 194%
- LIF mRNA expression level [5, 14]: 81%
- EPO mRNA expression level [6, 14]: 91%
- IL5 mRNA expression level [7, 14]: 35%
